Laboratory results reported in ChEMBL document CHEMBL1137923, “Identification of CJC-1131-albumin bioconjugate as a stable and bioactive GLP-1(7-36) analog” (Bioorg Med Chem Lett, 2004).
pEC50, pIC50: −log10 of the molar value.

Tests used:
[1] = target: T1, Glucagon-like peptide 1 receptor (Homo sapiens, UniProt P43220); experiment: Inhibitory concentration required against human GLP1 receptor expressed in CHO cell membrane homogenates; type: cell-based
[2] = target: T1, Glucagon-like peptide 1 receptor; experiment: Effective concentration against human GLP1 receptor expressed in CHO cells; type: cell-based

T1 sequence (P43220 whole entry): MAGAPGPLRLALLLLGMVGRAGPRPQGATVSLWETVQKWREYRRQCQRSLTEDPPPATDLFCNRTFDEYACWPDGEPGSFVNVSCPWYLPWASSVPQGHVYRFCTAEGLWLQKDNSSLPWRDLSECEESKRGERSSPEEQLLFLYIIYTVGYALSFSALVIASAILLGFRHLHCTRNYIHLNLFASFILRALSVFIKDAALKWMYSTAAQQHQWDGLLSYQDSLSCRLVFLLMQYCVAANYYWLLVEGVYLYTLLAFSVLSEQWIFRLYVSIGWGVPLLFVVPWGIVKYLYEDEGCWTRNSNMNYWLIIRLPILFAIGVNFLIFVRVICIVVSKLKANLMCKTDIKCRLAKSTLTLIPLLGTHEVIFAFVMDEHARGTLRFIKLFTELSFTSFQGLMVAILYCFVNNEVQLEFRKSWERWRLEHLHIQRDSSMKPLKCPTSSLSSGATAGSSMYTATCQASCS

pIC50 [1]	pEC50 [2]	Structure (SMILES)
< 5.00	< 6.00	CC[C@H](C)[C@H](NC(=O)[C@H](CCCCNC(=O)COCCOCCNC(=O)CCN1C(=O)C=CC1=O)NC(=O)[C@H](CCC(=O)O)NC(=O)[C@H](CCCCN)NC(=O)[C@H](C)NC(=O)[C@H](C)NC(=O)[C@H](CCC(N)=O)NC(=O)CNC(=O)[C@H](CCC(=O)O)NC(=O)[C@H](CC(C)C)NC(=O)[C@H](Cc1ccc(O)cc1)NC(=O)[C@H](CO)NC(=O)[C@H](CO)NC(=O)[C@@H](NC(=O)[C@H](CC(=O)O)NC(=O)[C@H](CO)NC(=O)[C@@H](NC(=O)[C@H](Cc1ccccc1)NC(=O)[C@@H](NC(=O)CNC(=O)[C@H](CCC(=O)O)NC(=O)[C@H](C)NC(=O)[C@@H](N)Cc1c[nH]cn1)[C@@H](C)O)[C@@H](C)O)C(C)C)C(=O)N[C@@H](C)C(=O)N[C@@H](Cc1c[nH]c2ccccc12)C(=O)N[C@@H](CC(C)C)C(=O)N[C@H](C(=O)N[C@@H](CCCCN)C(=O)NCC(=O)N[C@@H](CCCN=C(N)N)C(N)=O)C(C)C
6.15	7.55	CC[C@H](C)[C@H](NC(=O)[C@H](Cc1ccccc1)NC(=O)[C@H](CCC(=O)O)NC(=O)[C@H](CCCCN)NC(=O)[C@H](C)NC(=O)[C@H](C)NC(=O)[C@H](CCC(N)=O)NC(=O)CNC(=O)[C@H](CCC(=O)O)NC(=O)[C@H](CC(C)C)NC(=O)[C@H](Cc1ccc(O)cc1)NC(=O)[C@H](CCCCNC(=O)COCCOCCNC(=O)CCN1C(=O)C=CC1=O)NC(=O)[C@H](CO)NC(=O)[C@@H](NC(=O)[C@H](CC(=O)O)NC(=O)[C@H](CO)NC(=O)[C@@H](NC(=O)[C@H](Cc1ccccc1)NC(=O)[C@@H](NC(=O)CNC(=O)[C@H](CCC(=O)O)NC(=O)[C@H](C)NC(=O)[C@@H](N)Cc1c[nH]cn1)[C@@H](C)O)[C@@H](C)O)C(C)C)C(=O)N[C@@H](C)C(=O)N[C@@H](Cc1c[nH]c2ccccc12)C(=O)N[C@@H](CC(C)C)C(=O)N[C@H](C(=O)N[C@@H](CCCCN)C(=O)NCC(=O)N[C@@H](CCCN=C(N)N)C(N)=O)C(C)C
